Laboratory results as given in patent publication US6287840A (Axys Pharmaceuticals, Inc., priority 1999, dated 2001).

How the values were obtained:
calpain = assay: Inhibition (inactivation) of calpain, Suc-Leu-Tyr-AMC; assay type: biochemical; settings: pH 7.5, 5 mM CaCl2, 25° C.; for kobs /[I]*: values marked * (or %); for k/KI (kirr/KI): values without asterisk
Procedure: The inhibitors were tested against calpain at 1 or 2% as for the other enzymes. The reaction conditions were 50 mM Tris, pH 7.5, 5 mM CaCl2, 2.5 mM DTT, assayed at 25° C. The substrate was 100 μM Suc-Leu-Tyr-AMC.

[1] = tested on: Trypanosoma brucei extracellular bloodstream forms; assay: In vitro antiprotozoal activity, Trypanosoma brucei; assay type: cell-based; settings: Trypanosoma brucei, read-out: percentage inhibition, T. brucei
Procedure: (§1) In this table, the in vitro antiprotozoal activities of the indicated compounds were measured as percentage inhibition of Leishmania donovani amastigote infecteda mouse peritoneal macrophages, Trypanosoma cruzi amastigote infected macrophages, and Trypanosoma brucei extracellular bloodstream forms.

[2] = tested on: Trypanosoma cruzi amastigote infected macrophages; assay: In vitro antiprotozoal activity, Trypanosoma cruzi; assay type: cell-based; settings: Trypanosoma cruzi, Macrophage, read-out: percentage inhibition, T. cruzi
Procedure: as §1

[3] = tested on: Leishmania donovani amastigote infected mouse peritoneal macrophages; assay: In vitro antiprotozoal activity, Leishmania donovani; assay type: cell-based; settings: Leishmania donovani, Peritoneal macrophage, read-out: percentage inhibition, L. donovani
Procedure: as §1

[4] = biological target: T1, Cathepsin B from human placenta (Homo sapiens, UniProt P07858); assay: Inhibition of cathepsin B, Z-Arg-Arg-AMC fluorescence progress curves; assay type: biochemical; settings: for k/KI (kirr/KI): values without asterisk
T1 construct: Cathepsin B from human placenta, obtained from Sigma; purchased Sigma; host or cells: human placenta (tissue)
Procedure: Stock solutions of the various inhibitors (10 mM) were made in DMF; dilutions were made in the same solvent. Cathepsin B from human placenta, obtained from Sigma, was approximately 10 nM in the assay. The assay buffer contained 50 mM phosphate at pH 6.2, 2.5 mM dithiothreitol (DTT), and 2.5 mM ethylenediaminetetraacetic acid (EDTA). The substrate for cathepsin B was 50 μM Z-Arg-Arg-AMC (carbobenzyloxyarginylarginylaminomethylcoumarin). The assays were initiated at 25° C. by addition of enzyme to 2 mL of assay buffer containing the substrate and the various inhibitors (30-0.001 (μM). The increase in fluorescence at 460 nm with excitation at 380 nm was followed with time, and the assay was linear throughout the range observed. Inactivation of cathepsin B was indicated by a downward curve in the increase in fluorescence with time. In the absence of inhibitors, the enzymatic production of free AMC was linear throughout the time course of inactivation examined. Data points were collected over at least 3 half-times of inactivation, and in duplicate. The inhibition progress curves were analyzed using non-linear curve fitting software to compute the kobs values. Approximate second-order inactivation constants (kobs /[I]) were calculated for all compounds. For selected inhibitors, plots of 1/[I] vs. 1/kobs yielded the true constants kirr, KI, and kirr /KI, and were corrected for the presence of substrate by dividing KI (app.) by {1+[S]/Km }.

cruzain, from T. cruzi = cruzain, from T. cruzi (Trypanosoma cruzi, UniProt P25779); assay: Inhibition of cruzain, as for cathepsin L; assay type: biochemical; settings: for k/KI (kirr/KI): values without asterisk
cruzain, from T. cruzi, sequence (P25779 123-337 limits assumed): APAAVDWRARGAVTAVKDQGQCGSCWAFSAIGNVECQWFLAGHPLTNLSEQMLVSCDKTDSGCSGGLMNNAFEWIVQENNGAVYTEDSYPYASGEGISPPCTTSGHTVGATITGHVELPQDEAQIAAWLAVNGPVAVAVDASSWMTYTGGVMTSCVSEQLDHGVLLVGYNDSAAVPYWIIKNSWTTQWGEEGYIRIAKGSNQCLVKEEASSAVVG
Procedure: (§2) Stock solutions of the various inhibitors (10 mM) were made in DMF; dilutions were made in the same solvent. Cathepsin L from rat liver, (see Mason et al., Biochem. J. 226:233-241 (1985)) was approximately 1 nM in the assay. The assay buffer contained 50 mM phosphate at pH 6:2, 2.5 mM dithiothreitol (DTT), and 2.5 mM ethylenediaminetetraacetic acid (EDTA). The substrate for cathepsin L was 5 μM Z-Phe-Arg-AMC (carbobenzyloxyphenylalanylarginylaminomethylcoumarin). The assays were initiated at 25° C. by addition of enzyme to 2 mL of assay buffer containing the substrate and the various inhibitors (30-0.001 μM). The increase in fluorescence at 460 nm with excitation at 380 nm was followed with time. Inactivation of cathepsin L was indicated by a downward curve in the increase in fluorescence with time. In the absence of inhibitors, the enzymatic production of free AMC was linear throughout the time course of inactivation examined. Data points were collected over at least 3 half-times of inactivation. The inhibition progress curves were analyzed using non-linear curve fitting software to compute the kobs values. Approximate second-order inactivation constants (kobs /[I]) were calculated for all compounds. For selected inhibitors, plots of 1/[I] vs. 1/kobs yielded the true constants kirr, KI, and kirr/KI and were corrected for the presence of substrate by dividing KI (app.) by (1+[S]/Km).
Inhibition of cruzain, from T. cruzi, (see Eakin et at., J. Biol. Chem. 268(9): 6115-6118 (1993)) proceeded exactly as for cathepsin L, outlined above, using an enzyme concentration of 1 nM.

[5] = biological target: T2, Cathepsin L from rat liver (Rattus norvegicus, UniProt P07154); assay: Inhibition of cathepsin L, Z-Phe-Arg-AMC fluorescence progress curves; assay type: biochemical; settings: for k/KI (kirr/KI): values without asterisk, 25° C., pH 6.2
T2 construct: Cathepsin L from rat liver; from tissue; host or cells: rat liver
T2 sequence (P07154 114-288 limits assumed): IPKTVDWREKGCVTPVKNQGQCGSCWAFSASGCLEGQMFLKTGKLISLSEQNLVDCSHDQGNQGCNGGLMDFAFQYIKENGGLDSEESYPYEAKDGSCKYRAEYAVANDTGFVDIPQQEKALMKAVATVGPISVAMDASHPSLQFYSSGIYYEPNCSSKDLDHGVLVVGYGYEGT
T2 sequence (P07154 291-334 limits assumed): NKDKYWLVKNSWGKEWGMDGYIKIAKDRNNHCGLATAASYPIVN
Procedure: as §2

Cloned cathepsin S = biological target: T3, Cloned cathepsin S (Homo sapiens, UniProt P25774); assay: Inhibition of cathepsin S, Z-Val-Val-Arg-AMC fluorescence progress curves; assay type: biochemical
T3 construct: made in house
T3 sequence (P25774 115-331): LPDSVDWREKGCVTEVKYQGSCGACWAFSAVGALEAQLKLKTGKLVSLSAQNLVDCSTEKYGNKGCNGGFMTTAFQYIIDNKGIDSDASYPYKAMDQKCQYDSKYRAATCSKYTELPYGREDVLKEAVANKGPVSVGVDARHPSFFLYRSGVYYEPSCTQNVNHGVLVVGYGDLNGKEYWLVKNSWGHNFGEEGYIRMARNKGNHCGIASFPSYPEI
Procedure: Stock solutions of the various inhibitors (10 mM) were made in DMF; dilutions were made in the same solvent. Cloned cathepsin S, (see Bromme et al., J. Biol. Chem. 268(&): 4832-4838 (1993)) was less than 1 nM in the assay. The assay buffer contained 100 mM phosphate at pH 6.5, 0.01% Triton, 2.5 mM dithiothreitol (DTT), and 2.5 mM ethylenediaminetetraacetic acid (EDTA). The substrate for cathepsin S was 10 μM Z-Val-Val-Arg-AMC (carbobenzyloxyvalinylvalinylarginylaminomethylcoumarin). The assays were initiated at 25° C. by addition of enzyme to 2 mL of assay buffer containing the substrate and the various inhibitors (30-0.001 μM). The increase in fluorescence at 460 nm with excitation at 380 nm was followed with time. Inactivation of cathepsin S was indicated by a downward curve in the increase in fluorescence with time. In the absence of inhibitors, the enzymatic production of free AMC was linear throughout the time course of inactivation examined. Data points were collected over at least 3 half-times of inactivation. The inhibition progress curves were analyzed using non-linear curve fitting software to compute the kobs values. Approximate second-order inactivation constants (kobs /[I]) were calculated for all compounds. For selected inhibitors, plots of 1/[I] vs. 1/kobs yielded the true constants kirr, KI, and kirr /KI, and were corrected for the presence of substrate by dividing KI (app.) by {1+[S]/Km}.

Cl.NCC(=O)N[C@H](/C=C/S(=O)(=O)c1ccccc1)Cc1ccccc1 [HCl.Gly-Phe-VSPh, (S)-(E)-3-glycylamino-4-phenyl-1-phenylsulfonyl-1-butene hydrochloride]
kobs /[I]* (calpain): < 50 M⁻¹ s⁻¹
inhibition at 3 µM ([1]; 3 uM): 0%
inhibition at 10 µM ([1]; 10 uM): 0%
inhibition at 30 µM ([1]; 30 uM): 0%
inhibition at 90 µM ([1]; 90 uM): 0%
inhibition at 3 µM ([2]; 3 uM): 0%
inhibition at 10 µM ([2]; 10 uM): 0%
inhibition at 30 µM ([2]; 30 uM): 0.1%
inhibition at 90 µM ([2]; 90 uM): 0%
inhibition at 10 µM ([3]; 10 uM): 0%
inhibition at 30 µM ([3]; 30 uM): 0%
inhibition at 90 µM ([3]; 90 uM): 4.02%

Br.Br.N=C(N)NCCC[C@@H](/C=C/S(=O)(=O)c1ccccc1)NC(=O)[C@H](CCCNC(=N)N)NC(=O)N1CCOCC1 [Mu-Arg-ARgVSPh.2HBr, (S)-(E)-3-(4-morpholinecarbonylarginyl)amino-6-guanidino-1-phenylsulfonyl-1-hexene dihydrobromide]
kobs /[I]* (calpain): < 50 M⁻¹ s⁻¹
kirr [4]: 0.040 s⁻¹
Ki ([4]; corrected for substrate): 150 µM
k/KI (kirr/KI) ([4]; 25° C., pH 6.2): 26 M⁻¹ s⁻¹
kobs /[I]* (approximate second-order inactivation constant) (cruzain, from T. cruzi; values marked *): 2,100 M^-1 sec^-1

CC(Cc1ccccc1)(NC(=O)N1CCOCC1)C(=O)N[C@H](/C=C/S(=O)(=O)c1ccccc1)CCc1ccccc1 (mixture of isomers) [Mu-DL-Fam-HphVSPh]
k/KI (kirr/KI) (calpain): 0 M⁻¹ s⁻¹
KI ([4]; corrected for substrate): binds
k/KI (kirr/KI) ([4]; 25° C., pH 6.2): 0 M⁻¹ s⁻¹
kobs /[I]* (approximate second-order inactivation constant) (cruzain, from T. cruzi; values marked *): 18,100 M^-1 sec^-1
KI ([5]; corrected for substrate): binds
k/KI (kirr/KI) [5]: 0 M⁻¹ s⁻¹
kirr (Cloned cathepsin S): 0.54 s⁻¹
Ki (Cloned cathepsin S; corrected for substrate): 14 µM
k/KI (kirr/KI) (Cloned cathepsin S; values without asterisk, 25° C., pH 6.5): 39,000 M^-1 sec^-1

CSCC[C@@H](/C=C/S(=O)(=O)c1ccccc1)NC(=O)[C@H](CC(C)C)NC(=O)[C@H](CC(C)C)NC(C)=O [Ac-Leu-Leu-MetVSPh, (S)-(E)-3-(acetylleucylleucyl)amino-1-phenylsulfonyl-6-thia-1-heptene]
kobs /[I]* (calpain): 5,600 M^-1 sec^-1
k/KI (kirr/KI) ([4]; 25° C., pH 6.2): 0 M⁻¹ s⁻¹
k/KI (kirr/KI) (cruzain, from T. cruzi): 110,000 M^-1 sec^-1
k/KI (kirr/KI) [5]: 880,000 M^-1 sec^-1

CC(=O)N[C@@H](Cc1ccc(O)cc1)C(=O)N[C@H](C(=O)N[C@@H](C)C(=O)NC(/C=C/S(=O)(=O)c1ccccc1)CC(=O)O)C(C)C (stereo partly drawn) [Ac-Tyr-Val-Ala-AspVSPh, (e)-3-acetyltyrosylvalylalanylamino-4-hydroxycarbonyl-1-phenylsulfonyl-1-butene]
k/KI (kirr/KI) (calpain): 0 M⁻¹ s⁻¹
k/KI (kirr/KI) (cruzain, from T. cruzi): 0 M⁻¹ s⁻¹
k/KI (kirr/KI) [5]: 0 M⁻¹ s⁻¹

CCCC[C@@H](/C=C/S(=O)(=O)c1ccccc1)NC(=O)[C@H](CC(C)C)NC(=O)[C@H](CC(C)C)NC(C)=O [Ac-Leu-Leu-NleVSPh, (S)-(E)-3-(acetylleucylleucyl)amino-1-phenylsulfonyl-1-heptene]
kobs /[I]* (calpain): 6,900 M^-1 sec^-1
k/KI (kirr/KI) ([4]; 25° C., pH 6.2): 0 M⁻¹ s⁻¹
k/KI (kirr/KI) (cruzain, from T. cruzi): 133,000 M^-1 sec^-1
k/KI (kirr/KI) [5]: 930,000 M^-1 sec^-1

CC(C)C[C@H](NC(=O)OCc1ccccc1)C(=O)N[C@@H](CC(C)C)C(=O)N[C@H](/C=C/S(=O)(=O)c1ccccc1)Cc1ccc(O)cc1 [Z-Leu-Leu-TyrVSPh, (S)-(E)-3-(benzyloxycarbonylleucylleucyl)amino-4-(4-hydroxyphenyl)-1-phenylsulfonyl-1-butene]
kobs /[I]* (calpain): 36,400 M^-1 sec^-1
k/KI (kirr/KI) (calpain): 24,300 M^-1 sec^-1
kinact/KI ([4]; values marked *, 25° C., pH 6.2, read-out: kobs /[I]* (approximate second-order inactivation constant)): 730 M⁻¹ s⁻¹
kinact/KI (cruzain, from T. cruzi; pH 6.2, values marked *, read-out: kobs /[I]* (approximate second-order inactivation constant)): 45000 M⁻¹ s⁻¹
kinact/KI (Cloned cathepsin S; values marked *, 25° C., pH 6.5, read-out: kobs /[I]* (approximate second-order inactivation constant)): 280000 M⁻¹ s⁻¹

CC(=O)N[C@@H](CC(C)C)C(=O)N[C@@H](CC(C)C)C(=O)N[C@H](/C=C/S(=O)(=O)c1ccccc1)CCS(C)(=O)=O [Ac-Leu-Leu-Met(O2)VSPh, (S)-(E)-3-(acetylleucylleucyl)amino-5-methylsulfonyl-1-phenylsulfonyl-1-pentene]
kobs /[I]* (calpain): 8,400 M^-1 sec^-1
k/KI (kirr/KI) (cruzain, from T. cruzi): 104,000 M^-1 sec^-1
k/KI (kirr/KI) [5]: 1,500,000 M^-1 sec^-1
